PubChem BioAssay (NCI)
Where “and” joins values, the source holds several entries; their conditions need not be identical. Identical values can stand only once.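 Protocol summary: plate cells (96-well), add compound at 5 concentrations, incubate 48 h, interpolate endpoints linearly. Abbreviation: GI50, concentration required for 50% inhibition of growth. Definition used: TGI = concentration required for complete inhibition of growth.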

Key:
Test in all cases: inhibition of tumour cell growth, NCI panel, 48 h
[1] = system: 786-0 renal
[2] = system: EKVX NSCLC
[3] = system: HCC-2998 colon
[4] = system: IGROV1 ovarian
[5] = system: M14 melanoma
[6] = system: NCI-H522 lung
[7] = system: SNB-19 CNS
[8] = system: SNB-75 CNS
[9] = system: SW-620 colon
[10] = system: UACC-257 melanoma

Structure (SMILES) | GI50 [1] | TGI [1] | GI50 [2] | TGI [2] | GI50 [3] [µM] | TGI [3] [µM] | GI50 [4] | TGI [4] | GI50 [5] [µM] | TGI [5] [µM] | GI50 [6] | TGI [6] [µM] | GI50 [7] [µM] | TGI [7] [µM] | GI50 [8] | TGI [8] [µM] | GI50 [9] | TGI [9] [µM] | GI50 [10] | TGI [10] [µM]
Cc1cc2cccnc2c2ncccc12 | 0.77 µM | 5.97 µM | 0.665 µM | 16 µM | 2.75 | 68.2 | 1.18 µM | 6.44 µM | 1.26 | 5.32 | 3.52 µM | 17.9 | 2.27 | > 100 | 3.24 µM | > 100 | 2.34 µM | 27.9 | 2.14 µM | 6.94
COc1cc(=O)oc(/C=C/C=O)c1C |  | 42 µM |  | 94.6 µM |  | 32.2 |  | > 100 µM |  | 33.8 |  | 35.3 |  | 28.5 |  | 32.8 |  | 37.6 |  | 35.4
COc1ccc(-c2nn(-c3ccc(NC(=O)c4ccc(Cl)c(C(F)(F)F)c4)cc3)cc2-c2ccncc2)cc1Cl | 0.187 µM | 0.449 µM | 1.87 µM | > 100 µM | 1.06 | > 43.4 | 9.68 µM | > 100 µM | 0.471 | 3.08 | 4.03 µM | > 100 | 1.96 | > 100 | 0.287 µM | 6.42 | 1.06 µM | > 100 | 4.68 µM | > 94.9
[C-]#[O+].[Cl][Sn]([Cl])[Cl].[Cl][Sn]([Cl])[Cl].[Pt].c1ccc([PH+](c2ccccc2)c2ccccc2)cc1.c1ccc([PH+](c2ccccc2)c2ccccc2)cc1 | 53.5 µM | > 100 µM | 28 µM | > 100 µM | 60.7 | > 100 | 20.9 µM | > 100 µM | 30.7 | > 100 | 23.3 µM | 56.7 | 34.5 | > 100 | > 100 µM | > 100 | 35.1 µM | > 100 | 37.7 µM | > 100
COc1ccc2c(c1)[C@]1(C[C@H]1c1ccc3c(/C=C/c4ccc(CN5C[C@@H](C)O[C@@H](C)C5)cc4)n[nH]c3c1)C(=O)N2 | 2.3 µM | 8.58 µM | 6.01 µM | > 100 µM | 4.18 | > 59.7 | 9.69 µM | > 100 µM | 3.25 | 20.6 | 6.4 µM | > 100 | 9.74 | > 100 | 1.84 µM | 13.4 | 2.46 µM | > 61 | 6.8 µM | > 60.5
O=C(Cc1nc2ccccc2c(=O)n1-c1c(Cl)cccc1Cl)c1ccncc1 |  | 88.9 µM |  | > 100 µM |  | 44.2 |  | 49.7 µM |  | > 100 |  | 49.5 |  | > 100 |  | 68.2 |  | > 100 |  | 54.3
C=CCn1c(=O)c2cnc(Nc3ccc(N4CCN(C)CC4)cc3)nc2n1-c1ccc2c(n1)[C@@](O)(CC)CC2 | 0.271 µM | 12.2 µM | 1.12 µM | 22.5 µM | 0.593 | 3.82 | 0.212 µM | 13.6 µM | 0.225 | 5.81 | 0.221 µM | 0.888 | 1.85 | > 100 | 1.07 µM | 13.7 | 0.525 µM | > 100 | 1.75 µM | 18.1
O=C1c2ccccc2NC(c2cc(Cl)cc(Cl)c2O)N1CCc1ccccn1 (configuration not stated) |  | > 100 µM |  | > 100 µM |  | > 100 |  | > 100 µM |  | > 100 |  | > 100 |  | > 100 |  | > 100 |  | > 100 |  | > 100
CC1(C)OC(=O)[C@@](C)([C@H](O)c2ccccc2)O1 |  | > 100 µM |  | > 100 µM |  | > 100 |  | > 100 µM |  | > 100 |  | > 100 |  | > 100 |  | > 100 |  | > 100 |  | > 100
COC(=O)CCC(C)[C@H]1CCC2C3C(C[C@H](OC(C)=O)[C@@]21C)[C@@]1(C)CCC2(C[C@H]1C[C@H]3OC(C)=O)OOC1(CCC(C)CC1)OO2 (some centres not stated) | 9.1 µM and 27.6 µM | > 100 µM and 95.9 µM | 3.79 µM and 10.1 µM | 21.5 µM and 52.4 µM |  | > 100 | 3.82 µM and 10.1 µM | 16.4 µM and 27.3 µM |  | > 100 | 6.16 µM and 14.6 µM | > 100 |  | > 100 | 13.7 µM and 40.7 µM | > 100 | 4.68 µM and 31.4 µM | > 100 | 8.83 µM and 25.2 µM | > 100
Oc1c(C(Nc2cccc3ccccc23)c2ccccc2)ccc2cccnc12 (configuration not stated) | 3.37 µM | 76.3 µM | 2.93 µM | 41.1 µM | 4.56 | > 100 | 3.79 µM | 11 µM | 2.01 | 8.48 | 2.74 µM | 7.82 | 5.64 | > 100 | 5.67 µM | > 100 | 3.73 µM | 24 | 2.88 µM | 9.28
CC(C)N(C(=O)C12C3C4C5C3C1(C(=O)N(C(C)C)C(C)C)C5(C#N)C42)C(C)C (configuration not stated) |  | > 100 µM |  | > 100 µM |  | > 100 |  | > 100 µM |  | > 100 |  | > 100 |  | > 100 |  | > 100 |  | > 100 |  | > 100
CCOC(=O)C1=C(C)NC2SC(=O)/C(=C\c3ccccc3Cl)N2C1c1ccccc1 (configuration not stated) | > 100 µM | > 100 µM | > 100 µM | > 100 µM | > 100 | > 100 | > 100 µM | > 100 µM | > 100 | > 100 | > 100 µM | > 100 | > 100 | > 100 | > 100 µM | > 100 | > 100 µM | > 100 | > 100 µM | > 100
Cc1c(C(=O)CC(=O)C(=O)Nc2c(C(C)C)cccc2C(C)C)[n+](=O)c2ccccc2n1[O-] |  | 22.7 µM |  | 29 µM |  | 16.6 |  | 11.4 µM |  | 10.8 |  | 5.83 |  | 37.9 |  | 31.4 |  | 13.2 |  | 12.6
